Data from patent publication US10683487B2, “Myrmecridium flexuosum NUK-21, novel lactose oxidase isolated from Myrmecridium flexuosum NUK-21, and method for conversion of lactose into lactobionic acid by novel lactose oxidase” (NATIONAL UNIVERSITY OF KAOHSIUNG, priority 2017, dated 2020).
Read-outs that look alike come from different tables or passages of the source.

How the values were obtained:
[1] = system: NUK-21 strain; type: cell-based, Myrmecridium flexuosum NUK-21
[2] = system: lactose oxidase of the NUK-21 strain; type: biochemical, Myrmecridium flexuosum NUK-21
[3] = system: lactose oxidase of the NUK-21 strain; assay: Substrate specificity of lactose oxidase (OD500 nm peroxidase chromogen assay); type: biochemical, Myrmecridium flexuosum NUK-21
Experimental: Fifty mM of various buffers with different pH values were prepared, including CH3COOH—CH3COONa (pH 4.5-5.5), K2HPO4—NaH2PO4 (pH 5.5-8.0), Tris-HCl (pH 7.0-9.0), and Na2CO3—NaHCO3 (pH 9.0-11). Enzyme activity was determined by peroxidase chromogen method (Clin Chem, 1974; 20:470-475). The substrate, buffer and enzyme were premixed and reacted for 2 minutes, and then 4-aminoantipyrine (4-AA) coloring solution was added for reaction. A spectrophotometer was used to detect the absorbance of OD500 nm at room temperature (detection at every 15 seconds for a total of 90 seconds). The principle of the 4-AA assay is that the lactose oxidase oxidized lactose to lactobionic acid, which reduces dissolved oxygen to hydrogen peroxide, and the hydrogen peroxide, phenol, and 4-AA were catalyzed by the peroxidase to produce a red quinoneimine structure and show a stable signal at OD 500 nm.
The enzyme activity was defined as the enzyme concentration that produces 1 μmole hydrogen peroxide per minute. […] Calculation of enzyme activity: unit/ml=(ΔA500 nm/t)×(Vt/6.8)×(1/Ve)×n, in which ΔA500 nm:A500 nm variation in t minutes, 6.8: absorption coefficient of chromogenic material (mM^−1 cm^−1), Vt: total reaction volume, Ve: volume of enzyme was added, and n: fold of dilution of enzyme solution.
A spectrophotometer was used to detect the absorbance of OD500 nm at room temperature (detection at every 15 seconds for a total of 90 seconds), and the enzyme activity was determined.

[4] = system: lactose oxidase of the NUK-21 strain; assay: Effects of chemicals on enzyme activity (dissolved oxygen assay); type: biochemical, Myrmecridium flexuosum NUK-21
Experimental: The purified enzyme was added to A buffer containing 1 mM of various chemical solution and incubated in a water bath at 30° C. for 1 hour. Dissolved oxygen assay was used to determine the enzyme activity of lactose oxidase.

[5] = system: carbohydrate oxidases from different strains; settings: cited from earlier work
[6] = system: carbohydrate oxidases; settings: cited from earlier work
[7] = metal ions 0.01%, 4% wheat bran medium, 30° C., 4 days
[8] = metal ions 1 mM, 30° C., 1 hour, 0.7 mM lactose

O=S(=O)([O-])[O-].O=S(=O)([O-])[O-].O=S(=O)([O-])[O-].[Fe+3].[Fe+3] [Fe2(SO4)3]
Enzyme activity [1, 7]: 0.25 unit/ml

O=S(=O)([O-])[O-].[Ni+2] [NiSO4]
Relative activity [2, 8]: 100%

OC[C@H]1O[C@@](CO)(O[C@H]2O[C@H](CO)[C@@H](O)[C@H](O)[C@H]2O)[C@@H](O)[C@@H]1O [Sucrose]
Relative activity ([3]; 0.7 mM substrate): 0%
Relative activity ([3]; 7 mM substrate): 0%

O=S(=O)([O-])[O-].[K+].[K+] [K2SO4]
Enzyme activity [1, 7]: 0.26 unit/ml

O=C(CBr)c1ccc(Br)cc1 [2,4′-dibromoacetophenone]
Relative activity ([4]; chemical 1 mM, 30° C., 1 hour): 99%

CCN1C(=O)C=CC1=O [N-ethylmaleimide]
effect on enzyme activity (in words) ([4]; chemical 1 mM): activated
Relative activity ([4]; chemical 1 mM, 30° C., 1 hour): 139.5%

[N-]=[N+]=[N-].[Na+] [NaN3]
effect on enzyme activity (in words) ([4]; chemical 1 mM): activated
Relative activity ([4]; chemical 1 mM, 30° C., 1 hour): 131.3%

O=C(CO)[C@@H](O)[C@H](O)[C@H](O)CO [Fructose]
Relative activity ([3]; 0.7 mM substrate): 0%
Relative activity ([3]; 7 mM substrate): 0%

O=S(=O)([O-])[O-].[Na+].[Na+] [Na2SO4]
Enzyme activity [1, 7]: 0.26 unit/ml

OC[C@@H](O)[C@H](O)[C@@H](O)CO [Xylitol]
Relative activity ([3]; 0.7 mM substrate): 0%
Relative activity ([3]; 7 mM substrate): 0%

O=C[C@H](O)[C@@H](O)[C@@H](O)[C@H](O)CO [Galactose]
Relative activity ([3]; 0.7 mM substrate): 0%
Relative activity ([3]; 7 mM substrate): 1.8%

O=S(=O)([O-])[O-].[Mn+2] [MnSO4]
Enzyme activity [1, 7]: 0.37 unit/ml

O=S(=O)([O-])[O-].[Zn+2] [ZnSO4]
Enzyme activity [1, 7]: 0.22 unit/ml

O=S(=O)([O-])[O-].O=S(=O)([O-])[O-].O=S(=O)([O-])[O-].[Al+3].[Al+3] [Al2(SO4)3]
Enzyme activity [1, 7]: 0.37 unit/ml

OC[C@@H](O)[C@@H](O)[C@H](O)[C@@H](O)CO [Sorbitol]
Relative activity ([3]; 0.7 mM substrate): 0%
Relative activity ([3]; 7 mM substrate): 0%

[Cl][Pb][Cl] [PbCl2]
Relative activity [2, 8]: 89.7%
Enzyme activity [1, 7]: 0.29 unit/ml

[Cl][Ni][Cl] [NiCl2]
Enzyme activity [1, 7]: 0.43 unit/ml

O=C[C@H](O)[C@@H](O)[C@H](O)CO [Xylose]
Relative activity ([3]; 0.7 mM substrate): 0%
Relative activity ([3]; 7 mM substrate): 0%

O=S(=O)([O-])[O-].[Cd+2] [CdSO4]
Relative activity [2, 8]: 100%
Enzyme activity [1, 7]: 0.42 unit/ml

c1cnc2c(c1)ccc1cccnc12 [1,10-phenanthroline]
Relative activity ([4]; chemical 1 mM, 30° C., 1 hour): 98.8%

[Cl][Hg][Cl] [HgCl2]
Relative activity [2, 8]: 153.8%
Enzyme activity [1, 7]: 0.02 unit/ml

O=S(=O)([O-])[O-].[Fe+2] [FeSO4]
Relative activity [2, 8]: 61.1%
Relative activity ([2]; metal ions 1 mM, 30° C., 1 hour, 0.7 mM lactose, listed as Fe^2+): 61.3%

O=S(=O)([O-])[O-].[Cu+2] [CuSO4]
Relative activity [2, 8]: 96.8%
Enzyme activity [1, 7]: 0.61 unit/ml

O=[N+]([O-])[O-].[Ag+] [AgNO3]
Relative activity [2, 8]: 107.9%
Enzyme activity [1, 7]: 0.28 unit/ml

OC[C@H]1O[C@@H](O[C@H]2[C@H](O)[C@@H](O)C(O)O[C@@H]2CO)[C@H](O)[C@@H](O)[C@H]1O (stereo partly shown) [Lactose]
Relative activity ([3]; 0.7 mM substrate): 100%
Relative activity ([3]; 7 mM substrate): 100%

OC[C@H]1O[C@H](O[C@H]2[C@H](O)[C@@H](O)[C@H](O)O[C@@H]2CO)[C@H](O)[C@@H](O)[C@@H]1O [Maltose]
Relative activity ([3]; 0.7 mM substrate): 4.1%
Relative activity ([3]; 7 mM substrate): 24.8%

[Ca+2].[Cl-].[Cl-] [CaCl2]
Relative activity [2, 8]: 109.5%
Enzyme activity [1, 7]: 0.20 unit/ml

[Cl][Sn][Cl] [SnCl2]
Relative activity [2, 8]: 61.3%
Relative activity ([2]; metal ions 1 mM, 30° C., 1 hour, 0.7 mM lactose, listed as Sn^2+): 89.7%

[Cl][Fe]([Cl])[Cl] [FeCl3]
Relative activity [2, 8]: 103.2%
Enzyme activity [1, 7]: 0.27 unit/ml

O=C[C@H](O)[C@@H](O)[C@H](O[C@@H]1O[C@H](CO)[C@@H](O)[C@H](O)[C@H]1O)[C@H](O)CO [Cellobiose]
Relative activity ([3]; 0.7 mM substrate): 83.4%
Relative activity ([3]; 7 mM substrate): 81.7%

O=C(O)CN(CCN(CC(=O)O)CC(=O)O)CC(=O)O [EDTA]
Relative activity [4]: 136.3%
effect on enzyme activity (in words) [4]: activated

[Cl-].[Cl-].[Co+2] [CoCl2]
Relative activity [2]: 110.2%
Enzyme activity [1]: 0.26 unit/ml

OO [H2O2]
Relative activity ([4]; chemical 1 mM, 30° C., 1 hour): 100%

O=C(O)[C@H](O)[C@@H](O)[C@H](O[C@@H]1O[C@H](CO)[C@H](O)[C@H](O)[C@H]1O)[C@H](O)CO [lactobionic acid]
Relative activity ([3]; 0.7 mM substrate): 0%
Relative activity ([3]; 7 mM substrate): 0%

[Cl][Sn]([Cl])([Cl])[Cl] [SnCl4]
Enzyme activity [1, 7]: 0.32 unit/ml

O=S(=O)(F)Cc1ccccc1 [PMSF]
Relative activity ([4]; chemical 1 mM, 30° C., 1 hour): 104.9%

B1: Glucooligosaccharide oxidase: carbohydrate oxidase from Acremonium strictum (protein, UniProt Q6PW77 26-499, looked up)
Glucooligosaccharide oxidase: NSINACLAAADVEFHEEDSEGWDMDGTAFNLRVDYDPAAIAIPRSTEDIAAAVQCGLDAGVQISAKGGGHSYGSYGFGGEDGHLMLELDRMYRVSVDDNNVATIQGGARLGYTALELLDQGNRALSHGTCPAVGVGGHVLGGGYGFATHTHGLTLDWLIGATVVLADASIVHVSETENADLFWALRGGGGGFAIVSEFEFNTFEAPEIITTYQVTTTWNRKQHVAGLKALQDWAQNTMPRELSMRLEINANALNWEGNFFGNAKDLKKILQPIMKKAGGKSTISKLVETDWYGQINTYLYGADLNITYNYDVHEYFYANSLTAPRLSDEAIQAFVDYKFDNSSVRPGRGWWIQWDFHGGKNSALAAVSNDETAYAHRDQLWLWQFYDSIYDYENNTSPYPESGFEFMQGFVATIEDTLPEDRKGKYFNYADTTLTKEEAQKLYWRGNLEKLQAIKAKYDPEDVFGNVVSVEPIA
Substrate specificity ([5]; cellobiose): 120%
Substrate specificity ([5]; lactose): 100%
Km ([5]; substrate cellobiose): 120 µM
Km ([5]; substrate lactose): 380 µM
optimum pH [6]: 10
